Source: the supplement of paper PMC12137928
Counter-ions that a name gives are not always drawn.

Assays:
[1] = system: HCT116; test: efficacy (maximum % inhibition of viability vs DMSO); higher = more cytotoxic; conditions: 72 h
Summary of the method: (§1)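 In 1536-well plates, 250 HCT116 cells per well were seeded and left for 5 h to attach. Luminescence from CellTiter-Glo was set against vehicle (0%) and positive control (-100%), and pattern correction was applied. IC50 and maximal efficacy come from four-parameter Hill fitting.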

[2] = system: HCT116; conditions: 72 h
Summary of the method: as §1

SMILES | efficacy ([1]; ICRF193 0 nM) [%] | IC50 cell viability ([2]; ICRF193 0 nM) [µM] | IC50 cell viability ([2]; ICRF193 200 nM) [µM] | efficacy ([1]; ICRF193 200 nM) [%]
CN1CCC2=C(C1)c1ccccc1Cc1ccccc12 [Setiptiline] | 44.1 | 20.6 | > 45.8 | 
C[C@@H]1O[C@@H](O[C@@H]2C=C3CC[C@@H]4[C@H](CC[C@]5(C)[C@@H](c6ccc(=O)oc6)CC[C@]45O)[C@@]3(C)CC2)[C@H](O)[C@H](O)[C@H]1O [Proscillaridin] | 107 | 0.0164 | 0.013 | 91.3
COc1cc2c(cc1Cc1cccc(Cl)c1F)c(=O)c(C(=O)O)cn2[C@H](CO)C(C)C [Elvitegravir] | 71.8 | 18.3 | 20.6 | 83
NS(=O)(=O)c1ccc(-n2nc(C(F)(F)F)cc2-c2ccc(F)cc2)cc1 [Mavacoxib] | 56.9 | 29.1 | 20.6 | 51.5
N#CC(c1ccc(Cl)cc1)c1c(Cl)cc(-n2ncc(=O)[nH]c2=O)cc1Cl (stereo not given) [Diclazuril] | 46.5 | 20.6 | 20.6 | 56.7
CCCCN(CCCC)CC(O)c1cc(Cl)cc2c1-c1ccc(Cl)cc1/C2=C/c1ccc(Cl)cc1 (stereo not given) [Lumefantrine] | 120 | 23.1 | 18.3 | 113
N=c1ccn2c(n1)O[C@H]1[C@H](O)[C@@H](CO)O[C@H]12 [ANCITABINE HYDROCHLORIDE] | 58.5 | 0.206 | 0.146 | 56.7
Cc1ccc([N+](=O)[O-])[c]2c1[O][Hg]2 [Nitromersol] | 88.9 | 3.26 | 5.8 | 91.5
Cc1cncc(CN2CCC(=C3c4ccc(Cl)cc4CCc4cccnc43)CC2)c1 [Rupatadine (Fumarate)] | 56.6 | 18.3 | 20.6 | 88.3
CN1CCCC(n2nc(Cc3ccc(Cl)cc3)c3ccccc3c2=O)CC1 (stereo not given) [Azelastine hydrochloride] |  | > 45.8 | 29.1 | 65.4
COC(=O)C1=C(C)NC(C)=C(C(=O)OCC(C)=O)C1c1ccccc1[N+](=O)[O-] (stereo not given) [Aranidipine] | 83.8 | 29.1 | 16.4 | 88.9
Nc1c2ccccc2nc2ccccc12 [9-Aminoacridine, monohydrochloride, monohydrate] | 103 | 23.1 | 9.2 | 90.6
C=C1C(=O)O[C@H]2[C@H]1CC/C(C)=C/CC[C@@]1(C)O[C@@H]21 [Parthenolide] | 93.1 | 6.51 | 8.2 | 95.3
CCCCCCCCCCCCCCCC[N+](C)(C)Cc1ccccc1 [Benzylhexadecyldimethylammonium chloride] | 128 | 18.3 | 18.3 | 129
CNCCC=C1c2ccccc2CCc2ccccc21 [Pamelor] |  | > 45.8 | 29.1 | 51.6
Cc1c(Cl)c(C)[n+]([O-])c(Cl)c1-c1noc(-c2cc(O)c(O)c([N+](=O)[O-])c2)n1 [Opicapone] |  | > 45.8 | 29.1 | 98.7
C=C[C@@H]1C[C@]1(NC(=O)[C@@H]1C[C@@H]2CN1C(=O)[C@H](C(C)(C)C)NC(=O)O[C@@H]1C[C@H]1CCCCCc1nc3ccc(OC)cc3nc1O2)C(=O)NS(=O)(=O)C1CC1 [MK-5172] | 91.6 | 29.1 | 18.3 | 81.1
CCCSS/C(CCO)=C(/C)N(C=O)Cc1cnc(C)nc1N [Prosultiamine] |  | > 45.8 | 29.1 | 43.7
CCCCCCCCCCCCC[N+](C)(C)Cc1ccccc1 [BENZALKONIUM CHLORIDE] | 133 | 20.6 | 23.1 | 124
CCC1=C[C@@H]2CN(C1)Cc1c([nH]c3ccccc13)[C@@](C(=O)OC)(c1cc3c(cc1OC)N(C)[C@H]1[C@@](O)(C(=O)OC)[C@H](OC(C)=O)[C@]4(CC)C=CCN5CC[C@]31[C@@H]54)C2 [Vinorelbine tartrate] | 64.9 | 0.0651 | 0.058 | 72.3
CCc1nn(CCCN2CCN(c3cccc(Cl)c3)CC2)c(=O)n1CCOc1ccccc1 [Nefazodone hydrochloride] | 42.5 | 14.6 | 18.3 | 63.8
CC1=C(C(=O)OC(C)C)C(c2cccc([N+](=O)[O-])c2)C(C(=O)OC2CN(C(c3ccccc3)c3ccccc3)C2)=C(N)N1 (stereo not given) [Azelnidipine] | 124 | 23.1 | 18.3 | 98
CSc1ccc2c(c1)N(CCC1CCCCN1C)c1ccccc1S2 (stereo not given) [Thioridazine] | 115 | 23.1 | 18.3 | 95
C/C=C(/C)C(=O)O[C@H]1C(C)=C[C@]23C(=O)[C@@H](C=C(CO)[C@@H](O)[C@]12O)[C@H]1[C@@H](C[C@H]3C)C1(C)C [Ingenol mebutate] |  | > 45.8 | 23.1 | 60.3
C[C@@H]1O[C@@H](O[C@H]2C[C@@H](O)[C@]3(CO)[C@H]4[C@H](O)C[C@]5(C)[C@@H](C6=CC(=O)OC6)CC[C@]5(O)[C@@H]4CC[C@]3(O)C2)[C@H](O)[C@H](O)[C@H]1O [Ouabain octahydrate] | 104 | 0.116 | 0.13 | 84.4
CCCSc1ccc2[nH]c(NC(=O)OC)nc2c1 [Albendazole] | 53 | 10.3 | > 45.8 | 

SMILES | efficacy ([1]; ICRF193 0 nM) [%] | IC50 cell viability ([2]; ICRF193 0 nM) [µM] | IC50 cell viability ([2]; ICRF193 200 nM) [µM] | efficacy ([1]; ICRF193 200 nM) [%]
COc1cc(NC(C)CCCN)c2ncccc2c1 (stereo not given) [Primaquine diphosphate] | 87.5 | 5.8 | > 45.8 | 
C=C(C)[C@H]1Cc2c(ccc3c2O[C@@H]2COc4cc(OC)c(OC)cc4[C@@H]2C3=O)O1 [Rotenone] | 69.7 | 0.326 | 0.517 | 89.1
N[C@@H](CCC(=O)N[C@@H](CS)C(=O)NCC(=O)O)C(=O)O [Glutathione] |  | > 45.8 | 3.18 | 79.8
C=C1C[C@@H]2CC[C@@]34C[C@H]5O[C@H]6[C@@H](O3)[C@H]3O[C@H](CC[C@@H]3O[C@H]6[C@H]5O4)CC(=O)C[C@@H]3[C@@H](OC)[C@@H](C[C@H](O)CN)O[C@H]3C[C@H]3O[C@@H](CC[C@@H]1O2)C[C@@H](C)C3=C [Eribulin mesylate] | 90.6 | 0.0651 | 0.164 | 77.5
C[C@@H]1CCO[C@H]2Cn3cc(C(=O)NCc4ccc(F)cc4F)c(=O)c(O)c3C(=O)N12 | 82.5 | 25.9 | 20.6 | 106
COC(=O)N[C@H](C(=O)N1CCC[C@H]1c1ncc(-c2ccc(-c3ccc(-c4cnc([C@@H]5CCCN5C(=O)[C@@H](NC(=O)OC)C(C)C)[nH]4)cc3)cc2)[nH]1)C(C)C [Daclatasvir dihydrochloride] | 103 | 29.1 | 29.1 | 101
CC(=O)Oc1ccc(C(c2ccc(OC(C)=O)cc2)c2ccccn2)cc1 [Bisacodyl] | 48.1 | 2.06 | > 45.8 | 
C[C@@H](O[C@H]1OCCN(Cc2n[nH]c(=O)[nH]2)[C@H]1c1ccc(F)cc1)c1cc(C(F)(F)F)cc(C(F)(F)F)c1 [Aprepitant] | 113 | 23.1 | 18.3 | 102
C=C[C@@H]1C[C@]1(NC(=O)[C@@H]1C[C@@H](Oc2ncc(OC)c3ccc(Cl)cc23)CN1C(=O)[C@@H](NC(=O)OC(C)(C)C)C(C)(C)C)C(=O)NS(=O)(=O)C1CC1 | 92.8 | 20.6 | 20.6 | 92.4
COC(=O)C1=C(C)NC(C)=C(C(=O)OCCN2CCN(C(c3ccccc3)c3ccccc3)CC2)C1c1cccc([N+](=O)[O-])c1 (stereo not given) [Manidipine] | 92 | 18.3 | 18.3 | 90.1
CC(C)(C)C(=O)OCOP(=O)(COCCn1cnc2c(N)ncnc21)OCOC(=O)C(C)(C)C [Adefovir dipivoxil] | 63.1 | 14.6 | 13 | 79.3
[O-][n+]1ccccc1[S-].[O-][n+]1ccccc1[S-].[Zn+2] [Zinc pyrithione] | 107 | 4.61 | 2.06 | 102
CC(C)(C)NC[C@H](O)COc1ccccc1C1CCCC1 [Penbutolol sulfate] |  | > 45.8 | 20.6 | 50
CN(C)CCCN1c2ccccc2CCc2ccc(Cl)cc21 [Clomipramine hydrochloride] | 74.9 | 18.3 | 20.6 | 90.5
O=C1NC2CCCCN2C12CCN(CCCN1c3ccccc3CCc3ccc(Cl)cc31)CC2 (stereo not given) [Mosapramine] | 125 | 20.6 | 23.1 | 129
CC(=O)c1c(C)c2cnc(Nc3ccc(N4CCNCC4)cn3)nc2n(C2CCCC2)c1=O [Palbociclib] | 98.3 | 29.1 | 16.4 | 104
COC(=O)C1=C(C)NC(C)=C(C(=O)OCC(C)C)C1c1ccccc1[N+](=O)[O-] (stereo not given) [Nisoldipine] | 55.8 | 18.3 | 18.3 | 77.8
NS(=O)(=O)c1cc2c(cc1C(F)(F)F)NC(Cc1ccccc1)NS2(=O)=O (stereo not given) [Bendroflumethiazide] |  | > 45.8 | 0.92 | 68.8
CCCCc1oc2ccc(NS(C)(=O)=O)cc2c1C(=O)c1ccc(OCCCN(CCCC)CCCC)cc1 [Dronedarone hydrochloride] | 115 | 20.6 | 29.1 | 68.2
CO[C@@]1(NC(=O)CSCC#N)C(=O)N2C(C(=O)O)=C(CSc3nnnn3C)CS[C@@H]21 [Cefmetazole sodium] |  | > 45.8 | > 45.8 | 
CN1C(=O)[C@]23C[C@H]4C(C)(C)[C@]5(CNc6c5ccc5c6OC=CC(C)(C)O5)C[C@@]41CN2CC[C@@]3(C)O [Derquantel] |  | > 45.8 | > 45.8 | 
CC(=O)OCC(COC(C)=O)OC(C)=O [Triacetin] |  | > 45.8 | > 45.8 | 
C=C[C@]1(C)C[C@@H](OC(=O)CSCCN(CC)CC)[C@]2(C)[C@H](C)CC[C@]3(CCC(=O)[C@H]32)[C@@H](C)[C@@H]1O [Tiamulin] |  | > 45.8 | > 45.8 | 
O=C(CCCN1CC=C(n2c(=O)[nH]c3ccccc32)CC1)c1ccc(F)cc1 [Droperidol] |  | > 45.8 | > 45.8 | 
CCC(C)(C)c1ccc(CC(C)CN2C[C@@H](C)O[C@@H](C)C2)cc1 (stereo not given in full) [Amorolfine hydrochloride] |  | > 45.8 | > 45.8 | 
